Assay results: patent publication US7273848B2, “Apolipoprotein A-I agonists and their use to treat dyslipidemic disorders” (priority 1997, dated 2007)
No end group written: not given here.

Experiments:
[1] = target: T1, LCAT (purified from human plasma) (Homo sapiens, UniProt P04180); experiment: LCAT activation assay; assay type: biochemical; conditions: LCAT activation as compared with native human ApoA-I (= 100%), equivalent masses
T1 construct: from tissue; host or cells: human plasma
T1 sequence (P04180 25-440): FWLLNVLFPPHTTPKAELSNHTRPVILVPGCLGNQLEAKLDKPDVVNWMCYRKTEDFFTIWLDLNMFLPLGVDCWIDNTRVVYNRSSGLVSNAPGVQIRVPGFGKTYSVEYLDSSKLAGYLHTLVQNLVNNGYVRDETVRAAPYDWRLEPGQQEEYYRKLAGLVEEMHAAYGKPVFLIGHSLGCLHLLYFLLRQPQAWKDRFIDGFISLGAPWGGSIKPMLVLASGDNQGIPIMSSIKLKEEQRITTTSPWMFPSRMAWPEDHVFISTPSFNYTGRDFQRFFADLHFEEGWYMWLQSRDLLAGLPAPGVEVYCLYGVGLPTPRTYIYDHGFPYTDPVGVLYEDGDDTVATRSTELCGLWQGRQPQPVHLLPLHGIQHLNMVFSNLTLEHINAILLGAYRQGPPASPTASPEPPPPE
Method in brief: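 Activity was expressed as percentage conversion of radiolabelled cholesterol to cholesteryl ester, normalised to native ApoA-I as 100%. LCAT purified from human plasma was added to peptide-preincubated EPC or POPC/cholesterol (20:1) small unilamellar vesicles at pH 7.4. Specific activity is the peptide concentration reaching the conversion plateau at a fixed timepoint.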

[2] = Circular dichroism helicity determination; assay type: physicochemical; conditions: percent helicity; for He (%) TFE: 5 μM peptide, 90% vol TFE; for He (%) free: unbound peptide 5 μM in 5 mM phosphate buffer, pH 7.4, 37° C.; for He (%) mics: peptide-micelle complexes, Ri=100, 37° C.
Method in brief: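 Far-UV CD (190–260 nm) at 37° C on 5 μM peptide in 5 mM phosphate pH 7.4, free, with EPC:Chol 20:1 SUVs (Ri 30 or 50), lysophosphatidylcholine micelles (Ri 100) or 90% TFE. Spectra converted to molar ellipticity per residue; helicity from 222 nm ellipticity or CONTIN fitting to reference spectra, ±5%.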

Row | Sequence | ACTIVITY (%) LCAT [1] [%] | He (%) TFE ([2]; 37° C.) [%] | He (%) free [2] [%] | He (%) mics [2] [%] | He (%) SUVs ([2]; peptide-SUV complexes (20:1 EPC:Chol., Ri=30 and Ri=50), 37° C.) [%]
1 | PVLELFENLWERLLDALQKKLK [peptide 149] | 63 | 47 | 28 | 54 | 
2 | PVLELFENLLERLLDALQKKLK [peptide 146] | 86 | 95 | 97 | 100 | 100
